From article PMC3068608 (Journal of medicinal chemistry, 2011)
Entries after “also recorded” stand apart in the source; their conditions may differ. Like-named read-outs stand apart in the source and are kept apart here.

Key:
human κ opioid receptor [1] = biological target: T1, human κ opioid receptor (Homo sapiens, UniProt P41145); test: [35S]GTPγS binding mediated by the κ opioid receptor, CHO membranes; format: biochemical; settings: for Emax ± SEM (% maximal stimulation): κ receptor, [35S]GTPγS
T1 sequence (P41145 whole entry): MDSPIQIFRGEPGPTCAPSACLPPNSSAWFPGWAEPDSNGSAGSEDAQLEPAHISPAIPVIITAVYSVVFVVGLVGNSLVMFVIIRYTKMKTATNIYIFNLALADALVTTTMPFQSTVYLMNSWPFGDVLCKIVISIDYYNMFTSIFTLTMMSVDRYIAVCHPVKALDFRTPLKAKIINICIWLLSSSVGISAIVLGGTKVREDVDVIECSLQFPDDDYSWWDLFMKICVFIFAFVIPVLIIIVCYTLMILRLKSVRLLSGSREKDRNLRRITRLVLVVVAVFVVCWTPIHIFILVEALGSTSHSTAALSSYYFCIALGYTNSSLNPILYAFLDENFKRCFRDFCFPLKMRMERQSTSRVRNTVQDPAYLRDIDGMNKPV

human μ opioid receptor [2] = biological target: T2, human μ opioid receptor (Homo sapiens, UniProt P35372); test: [35S]GTPγS binding mediated by the μ opioid receptor, CHO membranes; format: biochemical; settings: for pharmacological properties / IC50: μ receptor; for pharmacological properties: [35S]GTPγS; for IC50: inhibition of binding stimulated by 200 nM DAMGO
T2 sequence (P35372 whole entry): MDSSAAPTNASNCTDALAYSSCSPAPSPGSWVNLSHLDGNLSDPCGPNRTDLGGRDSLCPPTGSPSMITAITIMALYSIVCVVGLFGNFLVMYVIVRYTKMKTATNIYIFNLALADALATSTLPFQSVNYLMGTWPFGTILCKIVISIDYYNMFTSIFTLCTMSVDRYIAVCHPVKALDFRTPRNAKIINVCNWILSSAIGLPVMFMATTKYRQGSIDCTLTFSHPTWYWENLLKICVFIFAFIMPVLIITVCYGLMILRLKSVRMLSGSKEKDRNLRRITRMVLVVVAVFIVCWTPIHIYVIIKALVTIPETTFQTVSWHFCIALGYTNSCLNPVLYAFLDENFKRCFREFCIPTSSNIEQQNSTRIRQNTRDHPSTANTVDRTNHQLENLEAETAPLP

human κ opioid receptor [3] = biological target: T1, human κ opioid receptor; test: Opioid receptor binding, [3H]U69,593, CHO cell membranes; settings: for Selectivity σ/κ: ratio of Ki values (δ over κ); for Ki (nM) ± SEM [3H]U69,593 (κ): CHO membranes, human κ receptor, 25 °C
human μ opioid receptor [4] = biological target: T2, human μ opioid receptor; test: Opioid receptor binding, [3H]DAMGO, CHO cell membranes; settings: for Ki (nM) ± SEM [3H]DAMGO (μ): CHO membranes, human μ receptor, 25 °C
human δ opioid receptor [5] = biological target: T3, human δ opioid receptor (Homo sapiens, UniProt P41143); test: Opioid receptor binding, [3H]naltrindole, CHO cell membranes
T3 sequence (P41143 whole entry): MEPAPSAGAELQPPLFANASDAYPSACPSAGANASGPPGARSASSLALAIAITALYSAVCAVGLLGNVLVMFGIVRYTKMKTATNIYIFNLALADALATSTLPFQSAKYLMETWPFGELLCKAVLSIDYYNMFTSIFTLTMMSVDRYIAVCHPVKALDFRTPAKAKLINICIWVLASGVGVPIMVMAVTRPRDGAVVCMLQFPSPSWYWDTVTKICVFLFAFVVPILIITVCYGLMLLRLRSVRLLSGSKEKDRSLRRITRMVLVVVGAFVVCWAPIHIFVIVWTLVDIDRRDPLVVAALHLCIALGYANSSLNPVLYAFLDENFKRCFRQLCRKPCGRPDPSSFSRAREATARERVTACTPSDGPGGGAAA

human κ opioid receptor [6] = biological target: T1, human κ opioid receptor; settings: ratio of Ki values (δ over κ), literature compounds; ref [5c], [10c], [11]; cited from earlier work
human δ opioid receptor [7] = biological target: T3, human δ opioid receptor; settings: at 10 μM; ref [5c], [10c], [11]; cited from earlier work
[8] = acute and chronic treatment; ref [7]; cited from earlier work
human κ opioid receptor [9] = biological target: T1, human κ opioid receptor; settings: [35S]GTPγS, ref [5c],[10c]; cited from earlier work
human μ opioid receptor [10] = biological target: T2, human μ opioid receptor; settings: [35S]GTPγS, ref [5c],[10c]; cited from earlier work

SMILES: CNc1nc2cc3c(cc2s1)C[C@@H]1[C@@H]2CCCC[C@]32CCN1CCCF [13c, N′-Methyl-aminothiazolo[5,4-b]-N-fluoropropylmorphinan]
- EC50 (human κ opioid receptor [1]): 0.12 ± 0.0067 µM
- Emax ± SEM (% maximal stimulation) (human κ opioid receptor [1]): higher Emax than that of selective agonist U50,488
- EC50 (human μ opioid receptor [2]): 0.42 ± 0.017 µM
- pharmacological properties (human μ opioid receptor [2]): full agonist activity; also recorded: full agonists
- IC50 (human μ opioid receptor [2]): > 10 µM

SMILES: CN(C)c1nc2cc3c(cc2s1)C[C@@H]1[C@@H]2CCCC[C@]32CCN1CC1CC1 [17a, N′, N′-Dimethyl-aminothiazolo[5,4-b]-N-cyclopropylmethylmorphinan]
- pharmacological properties (human μ opioid receptor [2]): partial agonist activity

SMILES: c1ccc(Nc2nc3cc4c(cc3s2)C[C@@H]2[C@@H]3CCCC[C@]43CCN2CC2CC2)nc1 [compound 27, N′-(Pyridin-2-yl)-aminothiazolo[5,4-b]-N-cyclopropylmethylmorphinan]
- Selectivity σ/κ (human κ opioid receptor [3]): >110

SMILES: CCNc1nc2cc3c(cc2s1)C[C@@H]1[C@@H]2CCCC[C@]32CCN1CCCF [19c, N′-Ethyl-aminothiazolo[5,4-b]-N-fluoropropylmorphinan]
- Emax ± SEM (% maximal stimulation) (human κ opioid receptor [1]): higher Emax than that of selective agonist U50,488
- pharmacological properties (human μ opioid receptor [2]): full agonist activity; also recorded: full agonists
- IC50 (human μ opioid receptor [2]): > 10 µM

SMILES: Nc1nc2cc3c(cc2s1)C[C@@H]1[C@@H]2CCCC[C@]32CCN1C[C@@H]1CCCO1 [compound 12, Aminothiazolo[5,4-b]-N-(S)-tetrahydrofurylmethylmorphinan]
- pharmacological properties (human μ opioid receptor [2]): full agonist activity; also recorded: full agonists
- IC50 (human μ opioid receptor [2]): > 10 µM

SMILES: CN(C)c1nc2cc3c(cc2s1)C[C@@H]1[C@@H]2CCCC[C@]32CCN1CCCF [17c, N′, N′-Dimethyl-aminothiazolo[5,4-b]-N-fluoropropylmethylmorphinan]
- Ki (nM) ± SEM [3H]U69,593 (κ) (human κ opioid receptor [3]): low affinity
- Ki (nM) ± SEM [3H]DAMGO (μ) (human μ opioid receptor [4]): low affinity

SMILES: c1c2c(cc3sc(N4CCNCC4)nc13)C[C@@H]1[C@@H]3CCCC[C@]23CCN1CC1CC1 [compound 28, N′-(Piperazin-1-yl)-thiazolo[5,4-b]-N-cyclopropylmethylmorphinan]
- Ki (human κ opioid receptor [3]): 0.11 ± 0.016 µM
- Selectivity μ/κ (human κ opioid receptor [3]; ratio of Ki values): 25
- Selectivity σ/κ (human κ opioid receptor [3]): >91
- Ki (human μ opioid receptor [4]): 2.7 ± 0.32 µM
- Ki (human δ opioid receptor [5]): > 10 µM

SMILES: CCNc1nc2cc3c(cc2s1)C[C@@H]1[C@@H]2CCCC[C@]32CCN1CC1CC1 [19a, N′-Ethyl-aminothiazolo[5,4-b]-N-cyclopropylmethylmorphinan]
- EC50 (human κ opioid receptor [1]): 0.022 ± 0.0051 µM
- Emax ± SEM (% maximal stimulation) (human κ opioid receptor [1]): higher Emax than that of selective agonist U50,488
- EC50 (human μ opioid receptor [2]): 0.029 ± 0.0046 µM
- pharmacological properties (human μ opioid receptor [2]): full agonist activity; also recorded: full agonists
- IC50 (human μ opioid receptor [2]): > 10 µM

SMILES: CNc1nc2cc3c(cc2s1)C[C@@H]1[C@@H]2CCCC[C@]32CCN1CC1CC1 [13a, N′-Methylaminothiazolo[5,4-b]-N-cyclopropylmethylmorphinan]
- pharmacological properties (human μ opioid receptor [2]): partial agonist activity; also recorded: partial agonists

SMILES: FC(F)(F)CNc1nc2cc3c(cc2s1)C[C@@H]1[C@@H]2CCCC[C@]32CCN1CC1CC1 [compound 15, N′-Trifluoroethyl-aminothiazolo[5,4-b]-N-cyclopropylmethylmorphinan]
- Emax ± SEM (% maximal stimulation) (human κ opioid receptor [1]): higher Emax than that of selective agonist U50,488

SMILES: CCCNc1nc2cc3c(cc2s1)C[C@@H]1[C@@H]2CCCC[C@]32CCN1CCCF [16c, N′-Propyl-aminothiazolo[5,4-b]-N-fluoropropylmorphinan]
- Ki (nM) ± SEM [3H]U69,593 (κ) (human κ opioid receptor [3]): low affinity
- Ki (nM) ± SEM [3H]DAMGO (μ) (human μ opioid receptor [4]): low affinity

SMILES: Nc1nc2cc3c(cc2o1)[C@@]12CCCC[C@H]1[C@@H](C3)N(CC1CC1)CC2 [compound 4]
- Selectivity σ/κ (human κ opioid receptor [6]): >192
- inhibition of [3H]Naltrindole (δ) binding (human δ opioid receptor [7]): 18% inh at 10 μM

SMILES: Nc1nc2cc3c(cc2s1)C[C@@H]1[C@@H]2CCCC[C@]32CCN1CCCF [compound 11, Aminothiazolo[5,4-b]-N-fluoropropylmorphinan]
- pharmacological properties (human μ opioid receptor [2]): partial agonist activity

SMILES: Oc1ccc2c(c1)[C@@]13CCCC[C@H]1[C@@H](C2)N(CC1CCC1)CC3 [butorphan]
- cocaine self-administration [8]: reduced cocaine self-administration dose-dependently

SMILES: Oc1ccc2c(c1)[C@@]13CCCC[C@H]1[C@@H](C2)N(CC1CC1)CC3 [compound 1, cyclorphan, reference compound]
- Emax ± SEM (% maximal stimulation) (human κ opioid receptor [9]): 90 ±10 % maximal stimulation
- cocaine self-administration [8]: reduced cocaine self-administration dose-dependently
- pharmacological properties (human μ opioid receptor [10]): Partial agonist
